Measurements as given in article PMC4430599, “Population pharmacokinetics of intravenous and oral panobinostat in patients with hematologic and solid tumors” (European Journal of Clinical Pharmacology, 2015).

Columns and labels:
[1] = system: plasma protein; conditions: independent of the drug concentration in plasma; no reference given; cited from earlier work
[2] = set-up: method as in ref 22 (a number printed in a supplementary file, which may have a reference list of its own: not looked up in the article's list); conditions: second final model; allometric exponent of weight on V2, assumed, no bootstrap; cited from earlier work
[3] = set-up: method as in PMID 25377157; conditions: patients with solid tumors with normal renal function; cited from earlier work
[4] = Population pharmacokinetic analysis (NONMEM), first final model; format: in vivo, patients
From the text: (§1) A population PK data set was constructed from 581 patients with advanced hematologic and solid tumors who participated in 14 phase 1 and phase 2 studies of panobinostat (Table 1). Studies A2101 and A2102 used IV panobinostat, whereas all other studies examined oral formulations of panobinostat. The CSF was used in two of the oral panobinostat studies, B2101and B2102, whereas the remaining studies used the FMI formulation. The two phase 1 dose-escalation studies of IV panobinostat used doses of 1.2 to 20 mg/m^2 daily administered under various intermittent regimens. In three phase 1 dose-escalation studies, patients received oral panobinostat at doses ranging from 10 to 80 mg/day (administered weekly on days 1, 3, and 5; or every other week; or on days 1 and 4 every week). In five phase 2 studies, patients with cutaneous T cell lymphoma, chronic myeloid leukemia, and multiple myeloma received 20 mg panobinostat orally per day on days 1, 3, and 5 weekly. In three clinical pharmacology studies, patients received oral panobinostat at 20 mg under various regimens for study-specific purposes: in cycle 1 followed by 20 mg per day (days 1, 3, and 5 weekly) or 45 mg (days 1 and 4 weekly) in subsequent cycles. In a phase 2 study of Hodgkin lymphoma, patients received 40 mg panobinostat on days 1, 3, and 5 weekly.
(§2) PK sampling generally occurred from predose through 48 h after each oral dose or predose through 24 h after each IV dose. Panobinostat was precipitated from plasma samples, evaporated to dryness, reconstituted with 10 % aqueous acetonitrile (containing 0.2 % formic acid), and analyzed by liquid chromatography–tandem mass spectrometry assay. The assay was linear from 0.5 to 500 ng/mL [15], and the bias and coefficient of variation (CV) values of the quality-control sample results ranged from −0.7 to 0.7 % and 2.3 to 11.6 %, respectively. The lower limit of quantification of panobinostat was 0.5 ng/mL for all studies except B2201 and B2203, for which it was 0.1 ng/mL. Values below the lower limit of quantification (6 % of the total) were excluded.
The data sets for modeling were prepared using SAS version 9.2. The time of panobinostat dosing or collection of blood was computed based on the date and time when available. When the date or time was unknown, collection times were estimated based on time of examinations or schedule in the protocol. Demographic information, including age, body weight, height, sex, and race, was collected at screening and used in the analysis. […] BSA (m^2) was computed via the Gehan–George formula as 234.94×Weight^0.515×Height^0.422/10000 where weight is in kilograms and height is in centimeters. […] was computed via the Cockroft–Gault formula as 140−Age×Weight×0.85forfemales/72×Creatinine/88.4 where creatinine was in micromoles per liter.
The model was developed based on the methods described by Wahlby and colleagues. Scatterplots used to visualize the plasma concentration vs. time profile were generated using R version 2.8.1 and SAS version 9.2. PK model building was conducted using the first-order conditional estimation method with INTERACTION (FOCEI) option, using the default three significant digits for convergence, within the software program nonlinear mixed-effect modeling (NONMEM) extended version VI and version VII. Random interindividual variability parameters were estimated using exponential parameterization. The exponential error models ensured that parameter estimates were within reasonable physiological bounds; negative values were not possible. Model selection criteria were based on both objective function values (OFVs), as generated by NONMEM, and graphic diagnostic plots. For each model analyzed, NONMEM calculated the minimum value of the OFV—a statistic that, up to an additive constant, is minus twice the log likelihood of the data. […]

[5] = system: CYP3A4; set-up: method as in PMID 21706316; conditions: coadministered CYP3A4 inhibitor; cited from earlier work
[6] = set-up: method as in PMID 16899611; conditions: IV, highest dose administered 14 mg/m^2; refractory hematologic tumors; cited from earlier work
[7] = Population pharmacokinetic analysis (NONMEM), second final model; format: in vivo, patients
From the text: as §1, §2
The model was developed based on the methods described by Wahlby and colleagues. Scatterplots used to visualize the plasma concentration vs. time profile were generated using R version 2.8.1 and SAS version 9.2. PK model building was conducted using the first-order conditional estimation method with INTERACTION (FOCEI) option, using the default three significant digits for convergence, within the software program nonlinear mixed-effect modeling (NONMEM) extended version VI and version VII. Random interindividual variability parameters were estimated using exponential parameterization. The exponential error models ensured that parameter estimates were within reasonable physiological bounds; negative values were not possible. Model selection criteria were based on both objective function values (OFVs), as generated by NONMEM, and graphic diagnostic plots. For each model analyzed, NONMEM calculated the minimum value of the OFV—a statistic that, up to an additive constant, is minus twice the log likelihood of the data. When two models are nested and the additional parameters of the larger model are not needed, the difference in their minimum OFV is asymptotically χ^2 distributed, with the number of degrees of freedom equal to the number of parameters not common to the two models. The likelihood ratio test compared the two models on the basis of the difference in their OFV values.
PK data from both the IV and oral routes were fitted simultaneously in order to allow for estimation of the oral bioavailability. Several models were explored, including two-compartment and three-compartment models with first-order elimination. […]

[8] = set-up: method as in ref 17 = [17]; 17. Woo MM, Culver K, Li W, Liu A, Scott J, Parker K, Jalaluddin M, Laird G, Cooper MR, Schran HF (2008) Panobinostat (LBH589) pharmacokinetics (PK): implications for clinical safety and efficacy. Ann; conditions: oral, 60 mg; cited from earlier work
[9] = set-up: method as in PMID 22864948; conditions: cited from earlier work
[10] = set-up: method as in PMID 25939707; conditions: cited from earlier work

dose proportionality of PK ([4]; dose range of 10 to 80 mg across the 14 studies, CL and V2 related to dose): dose proportional
K23 ([4]; first final model): 1.810 h⁻¹
K24 ([4]; first final model): 1.424 h⁻¹
K32 ([4]; first final model): 0.507 h⁻¹
K42 ([4]; first final model): 0.040 h⁻¹
interindividual (inter-patient) variability in clearance ([4]; first final model): 74%
OM.CLV2 (Omega 2,1) ([4]; first final model, covariance CL-V2): 0.178
V2.BSA ([4]; first final model, exponent of (BSA/1.9) on V2): 1.359
V2.AGE ([4]; first final model, exponent of (age/61) on V2): 0.396
OM.V2 (Omega 2,2) ([4]; first final model, interindividual variance of V2): 0.334
V2.ASIAN ([4]; first final model, multiplicative factor on V2, Asian vs Caucasian): 1.373
V2.BLACK ([4]; first final model, multiplicative factor on V2, black vs Caucasian): 1.241
V2.OTHER ([4]; first final model, multiplicative factor on V2, other race vs Caucasian): 1.127
F1 (bioavailability) ([4]; first final model, oral, fraction): 0.214
CL (clearance) ([4]; first final model, patient with BSA 1.9 m^2): 33.085 L/h
V2 (volume of the central compartment) ([4]; first final model, reference BSA 1.9 m^2, age 61, Caucasian): 24.838 L
clearance ([4]; human, plasma, other: IV and oral routes fitted simultaneously, first final model, patient with BSA 1.9 m^2, read-out: CL (clearance) (converted)): 552 mL/min
half-life ([4]; human, plasma, other: IV and oral routes fitted simultaneously, calculated based on the final parameter estimates, read-out: terminal half-life (converted)): ~37 h
bioavailability ([4]; human, plasma, first final model, oral, read-out: absolute bioavailability): 21.4%
OM.CLV2 (Omega 2,1) ([7]; covariance CL-V2): 0.151
OM.Q3V3 (Omega 4,3) ([7]; covariance Q3-V3): 0.505
OM.Q4V4 (Omega 6,5) ([7]; covariance Q4-V4): 0.556
Q3.AGE ([7]; exponent of (age/61) on Q3): 0.410
Q4.AGE ([7]; exponent of (age/61) on Q4): 0.212
V2.AGE ([7]; exponent of (age/61) on V2): -0.005
V3.AGE ([7]; exponent of (age/61) on V3): 0.713
V4.AGE ([7]; exponent of (age/61) on V4): 0.530
bioavailability ([7]; human, plasma, oral, fraction, read-out: F1 (bioavailability)): 19.4%
clearance ([7]; human, plasma, other: intravenous and oral, fitted simultaneously, reference weight 70 kg, age 61, Caucasian): 481 mL/min
OM.Q3 (Omega 3,3) ([7]; interindividual variance of Q3): 0.666
OM.Q4 (Omega 5,5) ([7]; interindividual variance of Q4): 0.497
OM.V2 (Omega 2,2) ([7]; interindividual variance of V2): 1.668
OM.V3 (Omega 4,4) ([7]; interindividual variance of V3): 0.441
OM.V4 (Omega 6,6) ([7]; interindividual variance of V4): 0.700
V2.ASIAN ([7]; multiplicative factor on V2, Asian vs Caucasian): 2.060
V2.BLACK ([7]; multiplicative factor on V2, black vs Caucasian): 1.817
V2.OTHER ([7]; multiplicative factor on V2, other race vs Caucasian): 0.835
V3 (peripheral volume) ([7]; reference weight 70 kg, age 61): 71.874 L
V4 (peripheral volume) ([7]; reference weight 70 kg, age 61): 803.193 L
V2 ([7]; reference weight 70 kg, age 61, Caucasian): 30.862 L
SMILES: Cc1[nH]c2ccccc2c1CCNCc1ccc(/C=C/C(=O)NO)cc1 [panobinostat]
plasma protein binding [1]: 90%
V2.WT [2]: 1.000
fraction excreted unchanged in the urine [3]: < 2.5%
panobinostat exposure with ketoconazole [5]: significant increases
maximum concentration (Cmax, mean ± SD) [6]: 565.6 ± 450.9 ng/mL
mean Cmax [8]: 71 ng/mL
number of circulating metabolites [9]: approximately 40
panobinostat exposure with liver impairment [10]: significant increases
